According to patent publication US20130196991A1, “SUBSTITUTED INDOLES, ANTIVIRAL ACTIVE COMPONENT, METHOD FOR PREPARATION AND USE THEREOF” (priority 2010, published 2013):
Where a name gives a salt, the structure may show the parent alone.

The molecules below were run on JFH-1 HCV (assay: microbe, parasite or virus in culture). Conditions: Hepatitis C virus, Huh-7, read-out: Inhibition of hepatitis C virus (IC50).
Assay type: cell-based, hepatitis C virus (HCV)
Description: Determination of antiviral activity of compounds of the general formula 1 towards hepatitis C viruses.
Determination of antiviral activity of compounds of the general formulas 1, 1.1, 1.2, 1.3, 1.3.1, 1.3.1.1 towards HCV was carried out on Huh7 cell culture. Immune in vitro (ELISA—enzyme-linked immunosorbent assay) test ELISA towards HCV virus cor-antigen was used. By means of this test inhibition effectiveness of antigen production (and, consequently, virus replication) by tested compounds in cells infected by JFH-1 virus was measured. Used in this experiment Huh7 cell culture having been infected with HCV virus is capable to support full range of viral replication.
Recombinant JFH-1 HCV virus used in the experiment was prepared by means of transfection of Huh7 cells by RNA JFH-1, prepared by transcription in vitro. JFH-1 DNA [Wakita, T. u ∂p. Production of Infectious Hepatitis C Virus in Tissue Culture from a Cloned Viral Genome. Nature Medicine 2005, 11:791-796.]) used as DNA matrix for transcription (NCBI, catalogue number AB047639, was synthesized chemically.
Huh7 cells were sowed in 96-well plates (3.0×10^3 cells in every well) Huh-7 medium (50 μl per every well). 9 solutions of every tested compound in Huh-7 medium in the range of concentrations of 0.09-200 μM were prepared. In 4 h after cell sowing the initial solution was removed by aspiration, after that 50 μl of tested compound solution and 50 μl of JFH-1 HCV were added to every well. As a result, the final concentrations of the tested compounds were in the range of 0.045-100 μM. If required the step of infection was carried out in 24 h after addition of tested compounds. After incubation for 16 h viral medium was removed by aspiration, and the tested compounds were added to the cultures in initial concentration to final value of 200 μl. The cells and tested compounds were incubated additionally for 4 days at 37° C. in the atmosphere of air containing 5% CO2. After the removal of nutrient solution the cells were fixed by addition of acetone/methanol (1:1) mixture in amount of 250 μl/well for 1 minute, washed three times with Phosphate Buffer (PBS buffer and then they were blocked by 10% FBS-PBS solution (150 μl/well)) for 1 h at room temperature. Each well was washed three times with PBS solution, incubated with mouse monoclonal antibodies to HCV cor-antigen (Affinity BioReagents, Catalogue: MA1-080), dissolved in FBS-PBS buffer (100 μl/well, prepared from the initial concentrate, diluted in the ratio 1:500 in 10% FBS-PBS), for 2 h at 37° C. Each well was washed three times with PBS solution, incubated with antibodies specific to mouse immunoglobulins, conjugated with horseradish peroxidase (HRP, 100 mkl/well of solution prepared from the initial concentrate, diluted in ratio 1:2500 in 10% FBS-PBS) for 1 h at 37° C. Each well was washed three times with PBS solution, then treated with OPD solution in amount of 100 μl/well (prepared by dilution of one OPD tablet in B 12 ml of citrate/phosphate buffer with addition of 5 μl of 30% H2O2) for 30 min in darkness at room temperature. The reaction was stopped by addition of 2N H2SO4 (100 μl/well), after that optical density at 490 nm was measured. IC50 value representing the concentration of the tested compound at which virus replication is lowered twice was calculated for every tested compound using Xlfit program according to the method described in [Wakita, T. u ∂p. (2005). Production of Infectious Hepatitis C Virus in Tissue Culture from a Cloned Viral Genome. Nature Medicine; 11:791-796.].

In order of falling IC50:
1. Clc1ccc(Cn2c(CN3CCCC3)nc3ccccc32)cc1 [I Control, Clemizole, reference compound]  9000 nM
2. CN1CCN(C(=O)C2CCN(Cc3cc4ccccc4n3C)CC2)CC1 [1.3.1.1(15) * 2 HCl, 1-Methyl-2-({4-[(4-methylpiperazin-1-yl)carbonyl]piperidin-1-yl}methyl)-1H-indole]  2400 nM
3. CCCN1CCN(C(=O)C2CCN(Cc3cc4ccccc4n3C)CC2)CC1 [1.3.1.1(14) * 2 HCl, 1-Methyl-2-({4-[(4-propylpiperazin-1-yl)carbonyl]piperidin-1-yl}methyl)-1H-indole dihydrochloride]  2100 nM
4. CC(C)c1ccc2c(c1)c1c3n2CCN(CC(N)=O)C3CCC1 (centres unmarked) [1.2(1), 2-(8-isopropyl-1,2,3a,4,5,6-hexahydro-3H-pyrazino[3,2,1-jk]carbazol-3-yl)-acetamide]  1700 nM
5. c1ccc(CN2CCCn3c4c(c5cc(C6CCCCC6)ccc53)CCCC42)cc1 (centres unmarked) [1.2(8)]  1600 nM
6. CCCN1CCN(C(=O)C2CCCN(Cc3cc4ccccc4n3Cc3ccc(Cl)cc3)C2)CC1 (centres unmarked) [1.3.2.1(13) * 2 HCl, 1-(4-chlorobenzyl)-2-({3-[(4-propylpiperazin-1-yl)carbonyl]piperidin-1-yl}methyl)-1H-indole dihydrochloride]  400 nM
7. CCCN1CCN(C(=O)C2CCN(Cc3cc4ccccc4n3Cc3ccc(Cl)cc3)CC2)CC1 [1.3.1.1(13), {1-[1-(4-chlorobenzyl)-1H-indol-2-ylmethyl]-piperidin-4-yl}-(4-propylpiperazin-1-yl)-methanone]  300 nM

Same assay, conditions: Huh7 cell culture infected with recombinant JFH-1 HCV; ELISA of cor-antigen; concentration at which virus replication is lowered twice; read-out: Inhibition of hepatitis C virus (IC50)

`CCCN1CCN(C(=O)C2CCCN(Cc3cc4ccccc4n3C)C2)CC1` (centres unmarked) [1.3.2.1(14) * 2 HCl, 1-Methyl-2-({3-[(4-propylpiperazin-1-yl)carbonyl]piperidin-1-yl}methyl-1H-indoledihydrochloride] showed an IC50 of 2100 nM.
